Assay results taken from BindingDB's records for doi:10.1016/j.chembiol.2009.01.006 (Johns Hopkins School of Medicine, 2009).

How the values were obtained:
[1] = molecular target: T1, Methionine aminopeptidase (Plasmodium falciparum Santa Lucia, UniProt W7G645); assay: Enzyme Inhibiton Assay
T1 sequence (W7G645 whole entry): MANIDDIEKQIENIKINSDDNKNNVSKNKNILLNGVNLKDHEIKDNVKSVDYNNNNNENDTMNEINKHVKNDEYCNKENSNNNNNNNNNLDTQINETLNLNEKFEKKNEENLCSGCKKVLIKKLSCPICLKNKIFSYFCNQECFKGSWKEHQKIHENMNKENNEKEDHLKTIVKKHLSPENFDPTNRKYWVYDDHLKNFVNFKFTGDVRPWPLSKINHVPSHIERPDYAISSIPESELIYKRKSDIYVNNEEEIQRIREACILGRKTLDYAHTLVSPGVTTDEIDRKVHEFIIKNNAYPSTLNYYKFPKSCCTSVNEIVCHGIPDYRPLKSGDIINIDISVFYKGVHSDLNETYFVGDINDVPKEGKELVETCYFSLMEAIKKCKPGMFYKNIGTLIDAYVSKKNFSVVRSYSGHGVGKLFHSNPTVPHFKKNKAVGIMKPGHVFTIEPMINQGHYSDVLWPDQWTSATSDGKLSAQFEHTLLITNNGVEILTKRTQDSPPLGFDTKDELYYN
Excerpt: (§1) Enzyme affinity assay using Fumarranol analogs with plasmodium falciparum methionine aminopeptidases (PfMetAPs).

[2] = molecular target: Methionine aminopeptidase 2 (Plasmodium falciparum, UniProt Q8TA23); assay: Enzyme Inhibiton Assay
Excerpt: as §1

Chain of Methionine aminopeptidase 2 (Q8TA23 whole entry): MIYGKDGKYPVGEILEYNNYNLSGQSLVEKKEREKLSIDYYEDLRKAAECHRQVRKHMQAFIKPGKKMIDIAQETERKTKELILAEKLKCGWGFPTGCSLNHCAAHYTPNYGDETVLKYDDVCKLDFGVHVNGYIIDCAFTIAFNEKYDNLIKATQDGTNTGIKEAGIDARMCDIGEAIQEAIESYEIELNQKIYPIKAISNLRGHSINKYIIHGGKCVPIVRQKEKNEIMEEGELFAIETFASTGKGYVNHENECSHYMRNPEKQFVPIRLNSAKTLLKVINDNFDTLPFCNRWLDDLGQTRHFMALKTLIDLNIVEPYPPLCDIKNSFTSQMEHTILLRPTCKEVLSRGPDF

`CO[C@@H]1[C@H](OC(=O)NC(=O)CCl)CC[C@]2(CO2)[C@H]1[C@@]1(C)O[C@@H]1CC=C(C)C` [(3R,4S,5S,6R)-5-methoxy-4-[(2R,3R)-2-methyl-3-(3-methylbut-2-en-1-yl)oxiran-2-yl]-1-oxaspiro[2.5]octan-6-yl N-(2-chloroacetyl)carbamate] was tested. Which IC50 [1] did it give?
Its IC50 is over 300 µM.

And the IC50 [2]?
The IC50 was 2 µM.

`CO[C@]12C(=O)CC[C@@]1(CBr)C2[C@@]1(C)O[C@@H]1CC=C(C)C` (some centres not stated) [Fumarranol Analog, 6] was tested. Which IC50 [2] did it give?
Its IC50 is over 500 µM.

`CO[C@]12C(=O)CC[C@@]1(C=O)C2[C@@]1(C)O[C@@H]1CC=C(C)C` (some centres not stated) [Fumarranol Analog, 7] was tested. Which IC50 [2] did it give?
Its IC50 is over 500 µM.

For `CO[C@]12C(=O)CC[C@@]1(CO)C2/C(C)=C/CC=C(C)C` (some centres not stated) [Fumarranol Analog, 8], which IC50 [2] is on record?
The IC50 was over 500 µM.

How did the IC50 [2] turn out when `CO[C@]12C(=O)/C(=C/c3ccco3)C[C@@]1(CO)C2[C@@]1(C)O[C@@H]1CC=C(C)C` (some centres not stated) [Fumarranol Analog, 9] was run?
The IC50 was over 500 µM.

For `CO[C@@]12C([C@@]3(C)O[C@@H]3CC=C(C)C)[C@]1(CO)CC[C@H]2O` (some centres not stated) [Fumarranol Analog, 10], which IC50 [2] is on record?
Its IC50 is over 500 µM.
